# Source: the supplement of paper PMC10307832
# How the values were obtained:
# Test in all cases: relative viability (nuclei count vs DMSO), 5 days (fraction); higher = more cells survive
# [1] = compound: N=C1NC(=O)/C(=C/c2ccc(O)cc2)S1 [Mirin] + Nc1ncn([C@H]2C[C@H](O)[C@@H](CO)O2)c(=O)n1 [Decitabine] (partner 2 µM)
# Method in brief: (§1)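 After 5 days of treatment, lung cancer cells in 1536-well plates were fixed and stained in a single step (final 0.05% Triton X-100, 1% formaldehyde, 1 ug/ml Hoechst) and their nuclei counted on 4× images. Treatment had been applied by pin tool the day after seeding as one drug alone or as a fixed anchor-drug dose with five library-drug doses (not always all listed) in √10 steps. Relative viability is the nuclei count of treated wells divided by that of vehicle wells, and values are medians of duplicate plates.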
# [2] = compound: CCC1=CN=CN=C1N2CCN(CC2)CC3=NC4=C(N3)C=C(C=C4)C(F)(F)F + CC(=O)Nc1cccc(-n2c(=O)n(C3CC3)c(=O)c3c(Nc4ccc(I)cc4F)n(C)c(=O)c(C)c32)c1 [Trametinib] (partner 0.02 µM)
# Method in brief: as §1
# [3] = compound: N=C1NC(=O)/C(=C/c2ccc(O)cc2)S1 [Mirin] + Cc1nc(NC(=O)N2CCC[C@H]2C(N)=O)sc1-c1ccnc(C(C)(C)C(F)(F)F)c1 [Alpelisib] (partner 2 µM)
# Method in brief: as §1
# [4] = compound: CCC1=CN=CN=C1N2CCN(CC2)CC3=NC4=C(N3)C=C(C=C4)C(F)(F)F + Nc1nc2[nH]cc(CCc3ccc(C(=O)N[C@@H](CCC(=O)O)C(=O)O)cc3)c2c(=O)[nH]1 [Pemetrexed] (partner 0.2 µM)
# Method in brief: as §1
Cell Line,relative viability ([1]; first compound 0.25 µM),relative viability ([1]; first compound 0.7906 µM),relative viability ([1]; first compound 2.5 µM),relative viability ([1]; first compound 7.906 µM),relative viability ([1]; first compound 25 µM),relative viability ([2]; first compound 0.04 µM),relative viability ([2]; first compound 0.1265 µM),relative viability ([2]; first compound 0.4 µM),relative viability ([2]; first compound 1.265 µM),relative viability ([2]; first compound 4 µM),relative viability ([3]; first compound 0.25 µM),relative viability ([3]; first compound 0.7906 µM),relative viability ([3]; first compound 2.5 µM),relative viability ([3]; first compound 7.906 µM),relative viability ([3]; first compound 25 µM),relative viability ([4]; first compound 0.04 µM),relative viability ([4]; first compound 0.1265 µM),relative viability ([4]; first compound 0.4 µM),relative viability ([4]; first compound 1.265 µM),relative viability ([4]; first compound 4 µM)
NCI-H1355,0.365,0.367,0.391,0.38,0.365,0.435,0.395,0.426,0.331,0.451,0.858,0.864,0.754,0.915,0.727,1.07,0.928,0.996,0.996,1.08
EKVX,0.317,0.338,0.395,0.361,0.26,0.415,0.384,0.379,0.32,0.309,0.909,0.817,0.992,0.773,0.788,0.425,0.395,0.399,0.404,0.384
NCI-H460,0.517,0.504,0.467,0.505,0.539,0.152,0.203,0.11,0.0864,0.0963,0.511,0.424,0.559,0.515,0.236,0.0519,0.0632,0.0612,0.0661,0.0611
NCI-H1975,0.427,0.329,0.402,0.36,0.401,0.36,0.342,0.319,0.309,0.422,0.626,0.631,0.618,0.714,0.572,0.318,0.295,0.298,0.298,0.276
HCC-78,0.514,0.764,0.698,0.565,0.657,0.843,0.712,0.628,0.577,0.562,0.389,0.393,0.366,0.291,0.298,0.913,0.829,0.905,0.898,0.952
NCI-H2085,0.562,0.537,0.546,0.553,0.604,0.456,0.369,0.401,0.43,0.491,0.908,1.07,0.97,0.843,0.674,0.818,0.789,0.84,0.772,0.845
H3255,0.595,0.577,0.649,0.467,0.758,0.639,0.583,0.572,0.522,0.599,0.719,0.814,0.674,0.576,0.92,0.59,0.552,0.59,0.568,0.575
NCI-H2126,0.556,0.534,0.586,0.557,0.461,0.601,0.546,0.565,0.536,0.513,0.758,0.724,0.784,0.679,0.688,0.75,0.695,0.725,0.657,0.709
LC-2-ad,0.843,0.814,0.743,0.78,0.921,0.976,0.814,0.938,0.921,0.871,0.865,0.926,0.98,0.821,0.726,0.272,0.266,0.283,0.289,0.292
RERF-LC-KJ,0.691,0.753,0.684,0.622,0.561,0.795,0.798,0.821,0.76,0.774,0.822,0.898,0.956,0.916,0.75,0.393,0.455,0.459,0.441,0.476
EBC-1,,,,,,,,,,,0.952,0.984,0.862,0.587,0.553,,,,,
HCC-15,0.612,0.517,0.618,0.59,0.505,0.36,0.392,0.372,0.368,0.369,0.851,0.859,0.928,0.798,0.593,0.217,0.204,0.224,0.236,0.218
NCI-H1563,,,,,,,,,,,0.918,0.958,0.92,0.937,0.833,0.6,0.619,0.834,0.598,0.887
COR-L 105,0.596,0.698,0.744,0.667,0.63,0.42,0.418,0.501,0.416,0.44,0.914,1.26,1.13,0.925,1.04,1.07,1.12,1.28,1.01,1.03
NCI-H596,1.03,1.2,1,0.993,0.998,0.821,0.804,0.724,0.788,0.647,0.438,0.45,0.481,0.513,0.361,0.52,0.506,0.483,0.438,0.444
LU99A,0.877,0.785,0.94,0.892,0.736,0.558,0.57,0.505,0.481,0.578,0.541,0.518,0.498,0.376,0.352,0.187,0.169,0.178,0.177,0.248
NCI-H1666,0.543,0.676,0.76,0.654,0.692,0.892,0.825,0.877,0.879,0.792,0.869,1.01,0.884,0.826,0.528,0.745,0.831,0.861,0.81,0.939
